Assay results reported in patent US20070128217A1 (priority 2003, published 2007).

Experiments:
[1] = tested on: antibodies in sera from SARS patients (sera 1a, 1b, 2, 6, 37, 62, London, SARS-yellow, SARS-green); type: binding, human; set-up: Binding of serum 6 to linear peptides of protein X1 of SARS-CoV Urbani / Binding of serum 37 to linear peptides of protein X1 of SARS-CoV Urbani / Binding of serum 6 to looped/cyclic peptide (PEPSCAN-ELISA) / Binding of serum 37 to looped/cyclic peptide (PEPSCAN-ELISA) / Binding of serum 37 to looped/cyclic peptides of protein X1 of SARS-CoV Urbani / Binding of serum 6 to linear peptides of protein X2 / Binding of serum 37 to linear peptides of protein X2 / Binding of serum 37 to looped/cyclic peptides of protein X2 of SARS-CoV Urbani / Binding of serum 6 to linear peptides of protein M of SARS-CoV Urbani / Binding of serum 37 to linear peptides of protein M of SARS-CoV Urbani / Binding of serum 6 to looped/cyclic peptides of protein M of SARS-CoV Urbani / Binding of serum 37 to looped/cyclic peptides of protein M of SARS-CoV Urbani / Binding of serum 6 to linear peptides of protein X3 of SARS-CoV Urbani / Binding of serum 37 to linear peptides of protein X3 of SARS-CoV Urbani / Binding of serum 37 to looped/cyclic peptides of protein X3 of SARS-CoV Urbani / Binding of serum 6 to linear peptides of protein X4 of SARS-CoV Urbani / Binding of serum 37 to linear peptides of protein X4 of SARS-CoV Urbani / Binding of serum 37 to looped/cyclic peptides of protein X4 of SARS-CoV Urbani / Binding of serum 6 to linear peptides of protein X5 of SARS-CoV Urbani / Binding of serum 37 to linear peptides of protein X5 of SARS-CoV Urbani / Binding of serum 37 to looped/cyclic peptides of protein X5 of SARS-CoV Urbani / Binding of serum 6 to linear peptides of protein N of SARS-CoV Urbani / Binding of serum 37 to linear peptides of protein N of SARS-CoV Urbani / Binding of serum 6 to linear peptide (PEPSCAN-ELISA) / Binding of serum 1a to looped/cyclic peptides of protein N of SARS-CoV Urbani / Binding of serum 1b to looped/cyclic peptides of protein N of SARS-CoV Urbani / Binding of serum 2 to looped/cyclic peptides of protein N of SARS-CoV Urbani / Binding of serum 6 to looped/cyclic peptides of protein N of SARS-CoV Urbani / Binding of serum 37 to looped/cyclic peptides of protein N of SARS-CoV Urbani / Binding of serum 62 to looped/cyclic peptides of protein N of SARS-CoV Urbani / Binding of serum London to looped/cyclic peptides of protein N of SARS-CoV Urbani / Binding of serum SARS-green to looped/cyclic peptides of protein N of SARS-CoV Urbani: unit not given here
[2] = tested on: control sera (pooled serum of ten healthy LUMC hospital workers; commercial negative donor pooled serum from the Dutch bloodbank); type: binding, human; set-up: Binding of Control serum LUMC to linear peptides / Binding of Control serum Blood-bank to linear peptides / Binding of Control serum LUMC to looped peptides / Binding of Control Serum Blood-Bank to Looped peptides / Binding of Control serum LUMC to linear peptides of the protein M of SARS-CoV Urbani / Binding of Control serum Blood-bank to linear peptides of the protein M of SARS-CoV Urbani / Binding of Control serum LUMC to looped peptides of the protein M of SARS-CoV Urbani / Binding of Control Serum Blood-Bank to Looped peptides of the protein M of SARS-CoV Urbani: unit not given here
[3] = tested on: rabbit serum obtained by immunizing a rabbit with the SARS-CoV strain Frankfurt 1; type: binding; set-up: Binding of a rabbit serum to linear peptides / Binding of a rabbit serum to looped peptides / Rabbit serum linear peptides / Rabbit serum looped peptides / Binding of a rabbit serum to linear peptides of protein N of SARS-CoV Urbani (Rabbit serum linear peptides) / Binding of a rabbit serum to looped/cyclic peptides of protein N of SARS-CoV Urbani (Rabbit serum looped peptides): unit not given here
[4] = tested on: recombinant human anti-SARS-CoV antibody 03-018; type: binding; set-up: Binding of antibody 03-018 to linear peptides of the N protein of SARS-CoV Urbani / Binding of antibody 03-018 to looped/cyclic peptides of the N protein of SARS-CoV Urbani: unit not given here

| Sequence | Binding of serum 1a to looped/cyclic peptides of protein N of SARS-CoV Urbani [1] | Binding of serum 1b to looped/cyclic peptides of protein N of SARS-CoV Urbani [1] | Binding of serum 2 to looped/cyclic peptides of protein N of SARS-CoV Urbani [1] | Binding of serum 6 to looped/cyclic peptides of protein N of SARS-CoV Urbani [1] | Binding of serum 37 to looped/cyclic peptides of protein N of SARS-CoV Urbani [1] | Binding of serum 62 to looped/cyclic peptides of protein N of SARS-CoV Urbani [1] | Binding of serum London to looped/cyclic peptides of protein N of SARS-CoV Urbani [1] | Binding of serum SARS-green to looped/cyclic peptides of protein N of SARS-CoV Urbani [1] | Binding of serum SARS-yellow to looped/cyclic peptides of protein N of SARS-CoV Urbani [1] | Binding of a rabbit serum to linear peptides of protein N of SARS-CoV Urbani (Rabbit serum linear peptides) [3] | Binding of a rabbit serum to looped/cyclic peptides of protein N of SARS-CoV Urbani (Rabbit serum looped peptides) [3] | Binding of antibody 03-018 to linear peptides of the N protein of SARS-CoV Urbani [4] | Binding of antibody 03-018 to looped/cyclic peptides of the N protein of SARS-CoV Urbani [4] | also measured |
| --- | --- | --- | --- | --- | --- | --- | --- | --- | --- | --- | --- | --- | --- | --- |
| FGRRGPEQTQGNFGD | 0.3 | 0.1 | 0.2 | 0.1 | 0.4 | 0.1 | 0.2 | 0.2 | 0.2 | 0.2 | 0.0 | 0.1 | 0.1 | Recognition of the peptide by sera of SARS-CoV infected individuals, and form (linear, looped/cyclic) in which it is recognized [1]: recognized in linear form; Binding of Control Serum Blood-Bank to Looped peptides [2]: 0.4; Binding of Control serum Blood-bank to linear peptides [2]: 0.7; Binding of Control serum LUMC to linear peptides [2]: 0.6; Binding of Control serum LUMC to looped peptides [2]: 0.3 |
| FKDNVILLNKHIDAY | 0.5 | 0.3 | 0.5 | 0.3 | 0.8 | 0.8 | 0.5 | 0.2 | 0.5 | 0.1 | 0.5 | 0.1 | 0.2 | Binding of serum 1a to linear peptides of protein N of SARS-CoV Urbani [1]: 0.2; Binding of serum 1b to linear peptides of protein N of SARS-CoV Urbani [1]: 0.1; Binding of serum 2 to linear peptides of protein N of SARS-CoV Urbani [1]: 0.2; Binding of serum 6 to linear peptides of protein N of SARS-CoV Urbani [1]: 0.2; Binding of serum 37 to linear peptides of protein N of SARS-CoV Urbani [1]: 0.6; Binding of serum 62 to linear peptides of protein N of SARS-CoV Urbani [1]: 0.6; Binding of serum London to linear peptides of protein N of SARS-CoV Urbani [1]: 0.5; Binding of serum SARS-green to linear peptides of protein N of SARS-CoV Urbani [1]: 0.2; Binding of serum SARS-yellow to linear peptides of protein N of SARS-CoV Urbani [1]: 0.7; Control Serum Blood-Bank Looped peptides [2]: 0.8; Control serum Blood-bank linear peptides [2]: 0.6; Control serum LUMC linear peptides [2]: 0.5; Control serum LUMC looped peptides [2]: 0.8 |
